For 15 compounds, IC50 results are on record in patent EP4768484A1, “HETEROCYCLIC FUSED RING COMPOUND, AND COMPOSITION AND USE THEREOF” (Shenzhen TargetRx, Inc., priority 2023, dated 2025).

Common to all, as to type: cell-based
One assay concerns Ba/F3 parental cells. The assay is described as follows: Cell growth inhibitory activity assay (CellTiter-Glo), Ba/F3 parental cells. Particulars: Mus musculus, BaF3, 72 h, CTG cell viability, read-out: IC50 Ba/F3 BCR-ABL1 Parental. On the procedure:
(§1) In this assay, the Celltiter-Glo (CTG) kit provided by Promega was used, and it is a homogeneous cell viability assay method. The cell viability of cultured cells was measured by quantifying ATP. K562 cells were purchased from Nanjing Kebai, product number CBP60529; Ba/F3 parental cells were purchased from RIKEN BRC, product number RCB0805; other cells containing BCR-ABL1 WT, BCR-ABL1 T315I, BCR-ABL1 T315M, BCR-ABL1 Y253H/E255K, BCR-ABL1 E255V/T3151, BCR-ABL1 A424T, BCR-ABL1 A337V, BCR-ABL1 P465S, BCR-ABL1 V468F, and BCR-ABL1 I502L were all monoclonal engineered cell lines obtained by transducting Ba/F3 parental cells with the lentivirus plasmids containing WT or corresponding mutated BCR-ABL1.
(§2) The steps of cell viability assay are as follows: • a) Cells in logarithmic growth phase were collected. Cell suspension was prepared and the cells were counted. Concentration of the cells was calculated. • b) The cell suspension was diluted to the required concentration and then added to the middle wells of a 96-well plate, and PBS was added to the edge wells. The wells with no cells and only culture medium were used as blank controls. • c) In addition to the cell plate used for compound analysis, another 96-well plate was prepared as a T0 plate, and 3-6 blank wells and 3-6 cell wells were added. The next day, CTG was used to test the cell viability as the T0 viability value of the cells. • d) The cell plate was incubated at 37 °C in a 5% CO2 incubator overnight. • e) The next day, each concentration of a compound subjected to a gradient dilution was added, and the cell plate was incubated at 37 °C in a 5% CO2 incubator for 72 h. The wells with no compound and only 0.5% DMSO were used as positive controls for cell growth. • f) CTG reagent (CellTiter-Glo kit) was added according to the manufacturer's instructions to test the cell viability value. • g) The plate was read using Biotek cytation3.0 microplate reader and the data were exported. • h) IC50 was calculated using GraphPad Prism 7.0 software.
(§3) The IC50 (half-maximal inhibitory concentration) of the compound was obtained using the following nonlinear fitting formula: Y = Bottom + (Top−Bottom)/(1+10^(∧)((LogIC50−X)*HillSlope)) [formula] • X: Log value of the compound concentration • Y: Inhibition rate (% inhibition) • Top: Maximum response • Bottom: Baseline response • HillSlope: Slope of the curve
(§4) The formula for calculating cell inhibition rate (inhibition rate %) was: [formula]
(In general: Cellular ATP, detected with luciferase, serves as a proxy for viable cell number.)

The next assay relates to K562 cells. The assay is described as follows: Cell growth inhibitory activity assay (CellTiter-Glo), K562 cells. Particulars: Homo sapiens, 72 h, CTG cell viability. On the procedure: as §1, §2, §3, §4
The target in a further assay is T1, Ba/F3 BCR-ABL1 T315I (Homo sapiens, UniProt P00519+P11274, T315I).
T1 construct: BCR (N-terminal fusion partner of the oncoprotein); expressed in transfected cells; host or cells: Ba/F3 (lentiviral transduction, monoclonal line)
The assay is described as follows: Cell growth inhibitory activity assay (CellTiter-Glo), Ba/F3 BCR-ABL1 T315I cells. Particulars: 72 h, CTG cell viability. On the procedure: as §1, §2, §3, §4

For a further assay, the target named is T2, Ba/F3 BCR-ABL1 WT (Homo sapiens, UniProt P00519+P11274).
T2 construct: BCR (N-terminal fusion partner of the oncoprotein); expressed in transfected cells; host or cells: Ba/F3 (lentiviral transduction, monoclonal line)
The assay is described as follows: Cell growth inhibitory activity assay (CellTiter-Glo), Ba/F3 BCR-ABL1 WT cells. Particulars: 72 h, CTG cell viability. The protocol: as §1, §2, §3, §4

pIC50: −log10 of the molar value.

Turning to `CN1Cc2ncc(-c3cc(C(=O)Nc4ccc(OC(F)(F)Cl)cc4)cc4c3C3(CCCCC3)C(=O)N4)cc2C1=O` [T-8, N-(4-(chlorodifluoromethoxy)phenyl)-4'-(6-methyl-5-oxo-6,7-dihydro-5H-pyrrolo[3,4-b]pyridin-3-yl)-2'-oxospiro[cyclohexane-1,3'-indoline]-6'-carboxamide], the pIC50 in the assay on Ba/F3 parental cells is under 6.00; in the assay with K562 cells, at least 8.30; against Ba/F3 BCR-ABL1 T315I, 7.30 to 8.30; against Ba/F3 BCR-ABL1 WT, at least 8.30.

Regarding `O=C(Nc1ccc(OC(F)(F)Cl)cc1)c1cnc(N2CC[C@@H](F)C2)c(-c2cnc3c(c2)-c2nn(-c4nccc(-c5cccnc5)n4)cc2C3)c1` [T-9, (R)-N-(4-(chlorodifluoromethoxy)phenyl)-6-(3-fluoropyrrolidin-1-yl)-5-(2-(4-(pyridin-3-yl)pyrimidin-2-yl)-2,4-dihydropyrazolo[3',4':3,4]cyclopenta[1,2-b]pyridin-7-yl)nicotinamide], the pIC50 in the assay on Ba/F3 parental cells was under 6.00; in the assay with K562 cells, at least 8.30; on Ba/F3 BCR-ABL1 T315I, at least 8.30; against Ba/F3 BCR-ABL1 WT, at least 8.30.

Turning to `CC(C)n1ncc2c1-c1cc(-c3cc(C(=O)Nc4ccc(OC(F)(F)Cl)cc4)cnc3N3CC[C@@H](F)C3)cnc1C2` [T-10-A, (R)-N-(4-(chlorodifluoromethoxy)phenyl)-6-(3-fluoropyrrolidin-1-yl)-5-(1-isopropyl-1,4-dihydropyrazolo[3',4':3,4]cyclopenta[1,2-b]pyridin-7-yl)nicotinamide], the pIC50 in the assay with Ba/F3 parental cells is under 6.00; in the assay on K562 cells it was at least 8.30; at Ba/F3 BCR-ABL1 T315I, 7.30 to 8.30; against Ba/F3 BCR-ABL1 WT, 7.30 to 8.30.

As for `CC(C)n1cc2c(n1)-c1cc(-c3cc(C(=O)Nc4ccc(OC(F)(F)Cl)cc4)cnc3N3CC[C@@H](F)C3)cnc1C2` [T-10-B, (R)-N-(4-(chlorodifluoromethoxy)phenyl)-6-(3-fluoropyrrolidin-1-yl)-5-(2-isopropyl-2,4-dihydropyrazolo[3',4':3,4]cyclopenta[1,2-b]pyridin-7-yl)nicotinamide], the pIC50 was under 6.00 in the assay on Ba/F3 parental cells, at least 8.30 in the assay with K562 cells, at least 8.30 against Ba/F3 BCR-ABL1 T315I and at least 8.30 against Ba/F3 BCR-ABL1 WT.

Consider `O=C(Nc1ccc(OC(F)(F)Cl)cc1)c1cnc(N2CC[C@H](F)C2)c(-c2cnc3c(c2)-c2nn(-c4ncc(F)cn4)cc2C3)c1` [T-13, (S)-N-(4-(chlorodifluoromethoxy)phenyl)-5-(2-(5-fluoropyrimidin-2-yl)-2,4-dihydropyrazolo[3',4':3,4]cyclopenta[1,2-b]pyridin-7-yl)-6-(3-fluoropyrrolidin-1-yl)nicotinamide], for which the pIC50 was under 6.00 in the assay with Ba/F3 parental cells, at least 8.30 with K562 cells, at least 8.30 on Ba/F3 BCR-ABL1 T315I and at least 8.30 against Ba/F3 BCR-ABL1 WT.

Take `Cc1cnc(-n2cc3c(n2)-c2cc(-c4cc(C(=O)Nc5ccc(OC(F)(F)Cl)cc5)cnc4N4CC[C@@H](F)C4)cnc2C3)nc1` [T-14, (R)-N-(4-(chlorodifluoromethoxy)phenyl)-6-(3-fluoropyrrolidin-1-yl)-5-(2-(5-methylpyrimidin-2-yl)-2,4-dihydropyrazolo[3',4':3,4]cyclopenta[1,2-b]pyridin-7-yl)nicotinamide]: the pIC50 was under 6.00 with Ba/F3 parental cells, at least 8.30 with K562 cells, at least 8.30 against Ba/F3 BCR-ABL1 T315I and at least 8.30 against Ba/F3 BCR-ABL1 WT.

As for `O=C(Nc1ccc(OC(F)(F)Cl)cc1)c1cnc(N2CC[C@@H](F)C2)c(-c2cnc3c(c2)-c2nn(-c4ncc(C(F)(F)F)cn4)cc2C3)c1` [T-15, (R)-N-(4-(chlorodifluoromethoxy)phenyl)-6-(3-fluoropyrrolidin-1-yl)-5-(2-(5-(trifluoromethyl)pyrimidin-2-yl)-2,4-dihydropyrazolo[3',4':3,4]cyclopenta[1,2-b]pyridin-7-yl)nicotinamide], the pIC50 in the assay on Ba/F3 parental cells was under 6.00; in the assay with K562 cells it was at least 8.30; against Ba/F3 BCR-ABL1 T315I, 7.30 to 8.30; against Ba/F3 BCR-ABL1 WT, at least 8.30.

In the case of `C[C@@H]1COCc2nc3cc(C(=O)Nc4ccc(OC(F)(F)Cl)cc4)cc(-c4cnc5c(c4)-c4nn(C)cc4C5)c3n21` [T-16, (R)-N-(4-(chlorodifluoromethoxy)phenyl)-4-methyl-6-(2-methyl-2,4-dihydropyrazolo[3',4':3,4]cyclopenta[1,2-b]pyridin-7-yl)-3,4-dihydro-1H-benzo[4,5]imidazo[2,1-c][1,4]oxazine-8-carboxamide], the pIC50 in the assay with Ba/F3 parental cells was under 6.00; with K562 cells it was at least 8.30; at Ba/F3 BCR-ABL1 T315I it was at least 8.30; against Ba/F3 BCR-ABL1 WT, at least 8.30.

`COc1cnc(-n2cc3c(n2)-c2cc(-c4cc(C(=O)Nc5ccc(OC(F)(F)Cl)cc5)cnc4N4CC[C@@H](F)C4)cnc2C3)nc1` [T-17, (R)-N-(4-(chlorodifluoromethoxy)phenyl)-6-(3-fluoropyrrolidin-1-yl)-5-(2-(5-methoxypyrimidin-2-yl)-2,4-dihydropyrazolo[3',4':3,4]cyclopenta[1,2-b]pyridin-7-yl)nicotinamide]: the pIC50 in the assay on Ba/F3 parental cells was under 6.00; with K562 cells, at least 8.30; on Ba/F3 BCR-ABL1 T315I it was at least 8.30; on Ba/F3 BCR-ABL1 WT it was at least 8.30.

Consider `N#Cc1ccc(-c2ccnc(-n3cc4c(n3)-c3cc(-c5cc(C(=O)Nc6ccc(OC(F)(F)Cl)cc6)cnc5N5CC[C@@H](F)C5)cnc3C4)n2)cn1` [T-19, (R)-N-(4-(chlorodifluoromethoxy)phenyl)-5-(2-(4-(6-cyanopyridin-3-yl)pyrimidin-2-yl)-2,4-dihydropyrazolo[3',4':3,4]cyclopenta[1,2-b]pyridin-7-yl)-6-(3-fluoropyrrolidin-1-yl)nicotinamide], for which the pIC50 with Ba/F3 parental cells is under 6.00; in the assay with K562 cells, at least 8.30; against Ba/F3 BCR-ABL1 T315I, at least 8.30; against Ba/F3 BCR-ABL1 WT, at least 8.30.

`O=C(Nc1ccc(OC(F)(F)Cl)cc1)c1cnc(N2CC[C@@H](F)C2)c(-c2cnc3c(c2)-c2nn(-c4nccc(-c5cncnc5)n4)cc2C3)c1` [T-22]: the pIC50 with Ba/F3 parental cells is under 6.00; in the assay with K562 cells, at least 8.30; against Ba/F3 BCR-ABL1 T315I, at least 8.30; against Ba/F3 BCR-ABL1 WT, at least 8.30.

Regarding `CC(C)n1cnc2cc(C(=O)Nc3ccc(OC(F)(F)Cl)cc3)cc(-c3cnccn3)c21` [T-23, N-(4-(chlorodifluoromethoxy)phenyl)-1-isopropyl-7-(pyrazin-2-yl)-1H-benzo[d]imidazole-5-carboxamide], the pIC50 in the assay with Ba/F3 parental cells is under 6.00; in the assay on K562 cells, 7.30 to 8.30; against Ba/F3 BCR-ABL1 T315I, 6.00 to 7.30; on Ba/F3 BCR-ABL1 WT, at least 8.30.

On to `C[C@@H]1CCOc2nc3cc(C(=O)Nc4ccc(OC(F)(F)Cl)cc4)cc(-c4cnc5c(c4)C(=O)N(C)C5)c3n21` [T-24, (R)-N-(4-(chlorodifluoromethoxy)phenyl)-4-methyl-6-(6-methyl-5-oxo-6,7-dihydro-5H-pyrrolo[3,4-b]pyridin-3-yl)-3,4-dihydro-2H-benzo[4,5]imidazo[2,1-b][1,3]oxazine-8-carboxamide], for which the pIC50 in the assay with Ba/F3 parental cells is under 6.00; in the assay on K562 cells it was at least 8.30; at Ba/F3 BCR-ABL1 T315I, 6.00 to 7.30; against Ba/F3 BCR-ABL1 WT it was 7.30 to 8.30.

Turning to `Cn1ccc(-c2ccnc(-n3cc4c(n3)-c3cc(-c5cc(C(=O)Nc6ccc(OC(F)(F)Cl)cc6)cnc5N5CC[C@@H](F)C5)cnc3C4)n2)n1` [T-26, (R)-N-(4-(chlorodifluoromethoxy)phenyl)-6-(3-fluoropyrrolidin-1-yl)-5-(2-(4-(1-methyl-1H-pyrazol-3-yl)pyrimidin-2-yl)-2,4-dihydropyrazolo[3',4':3,4]cyclopenta[1,2-b]pyridin-7-yl)nicotinamide], the pIC50 in the assay with Ba/F3 parental cells was under 6.00; with K562 cells, at least 8.30; against Ba/F3 BCR-ABL1 T315I it was at least 8.30; on Ba/F3 BCR-ABL1 WT, at least 8.30.

For `O=C(Nc1ccc(OC(F)(F)Cl)cc1)c1cnc(N2CC[C@@H](F)C2)c(-c2cnc3c(c2)-c2nn(-c4ncc5ccccc5n4)cc2C3)c1` [T-29, (R)-N-(4-(chlorodifluoromethoxy)phenyl)-6-(3-fluoropyrrolidin-1-yl)-5-(2-(quinazolin-2-yl)-2,4-dihydropyrazolo[3',4':3,4]cyclopenta[1,2-b]pyridin-7-yl)nicotinamide], the pIC50 in the assay on Ba/F3 parental cells was under 6.00; with K562 cells, at least 8.30; against Ba/F3 BCR-ABL1 T315I, 7.30 to 8.30; against Ba/F3 BCR-ABL1 WT, at least 8.30.
